# Test results reported in paper PMC8389697, “Development and Characterization of a Novel Peptide—Drug Conjugate with DM1 for Treatment of FGFR2-Positive Tumors” (Biomedicines, 2021).
# Square brackets hold non-standard residues; d marks the D form. Ends that are not written are not given here. Hyp = O=C(O)[C@@H]1C[C@@H](O)CN1; Aad = N[C@@H](CCCC(=O)O)C(=O)O; Cit = NC(=O)NCCC[C@H](N)C(=O)O; Nva = CCC[C@H](N)C(=O)O; Ac3c = NC1(C(=O)O)CC1
# Columns and labels:
# [1] = once per week; no reference given; cited from earlier work
# From the text: We investigated the antitumor efficacy of those two PDCs on xenografted mice in vivo.
# [2] = tested on: MCF-7 cells; experiment: Clone formation experiment; type: cell-based, human; conditions: MCF-7, 200 cells per well, 1 week, crystal violet; performed three times
# Procedure: We seeded 200 cells per well in 6-well plates with culture medium. After 12 h, the cells were incubated with different agents for 1 week at 37 °C with 5% CO2. Then, we washed the wells with PBS, fixed the cells with methanol for 10 min and stained them with crystal violet at room temperature. Finally, we washed them with sterile water several times in order to obtain a clean background, and then, the colonies formed were photographed and statistically analyzed.
# [3] = molecular target: T1, FGFR2 extracellular motif protein (UniProt P21802 22-377); experiment: ITC; ITC200, 25 °C, both dissolved in sterile water; 0.1 mM peptide in the sample cell, 0.001 mM FGFR protein in the syringe; 19 injections of 2 µL, 5 min apart; conditions: both partners purified
# T1 construct: fibroblast growth factor receptor 2 (FGFR2), recombinant, 'extracellular motif protein'; No catalogue number is printed; limits, isoform (IIIb or IIIc) and tag of the bought protein are unknown; also called FGFR2 protein; recombinant proteins of the FGFR2; source: bought: Sino Biological
# T1 sequence (P21802 22-377): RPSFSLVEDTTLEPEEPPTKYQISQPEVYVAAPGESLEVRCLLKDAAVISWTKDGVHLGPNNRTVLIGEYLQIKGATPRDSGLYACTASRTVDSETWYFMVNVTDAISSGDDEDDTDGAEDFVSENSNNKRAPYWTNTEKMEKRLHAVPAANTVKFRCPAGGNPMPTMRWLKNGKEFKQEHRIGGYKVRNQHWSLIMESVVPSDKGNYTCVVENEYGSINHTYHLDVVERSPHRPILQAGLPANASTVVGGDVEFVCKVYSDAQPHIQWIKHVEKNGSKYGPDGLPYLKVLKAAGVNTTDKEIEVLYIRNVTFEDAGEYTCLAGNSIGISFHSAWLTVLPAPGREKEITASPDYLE
Molecule,tolerated concentrations in mice [1] [mg/kg],concentration that completely suppresses clone formation [2] [µg/mL],Ka [3] [M⁻¹],Kd [3] [nM]
"COc1cc2cc(c1Cl)N(C)C(=O)C[C@H](OC(=O)[C@H](C)N(C)C(=O)CCS)[C@]1(C)O[C@H]1[C@H](C)[C@@H]1C[C@@](O)(NC(=O)O1)[C@H](OC)/C=C/C=C(\C)C2 [DM1, reference compound]",1.0 to 1.5,0.001,,
[Hyp][dL][Cit][dD][dN][dK][Ac3c][Nva][Aad] [LLC2B],,,1.04e+09,0.96
